The record followed here is patent US6348205B1, “Use of carbonic acid for stabilizing or increasing the epidermal ceramide synthesis rate” (Beiersdorf AG, priority 1997, dated 2002).

Read-outs that look alike come from different tables or passages of the source.

Assay [1] relates to irritated skin (epidermal permeability barrier). The method, then: (§1) For the standardized washing, a normal commercially available shampoo which, according to the manufacturer, contains […] active cleansing substances was diluted with distilled water until it contained 10% active cleansing substances in the solution ready for use.
(§2) Tap water was used for the part-affusions with pure water.
(§3) The carbonated water employed was mechanically produced using an impregnation device in which tap water was supplemented with carbon dioxide under elevated pressure.
(§4) All the part-affusions take place at a temperature of 37° C.
(§5) The test was carried out as unilateral test on 20 test subjects (13 women and 7 men between 23 and 28 years of age). The volunteer test subjects were not subjected to any selection conditions apart from right-handedness. For random distribution, one half of the participants was treated with carbonic acid on the right hand and the other half was treated on the left hand.
(§6) Over a period of 2 weeks, the back of one hand of the test subjects was rinsed with carbonic acid for 1 min once a day. The other was rinsed with pure water as control. At the same time, the backs of both hands were repeatedly irritated by a standardized washing with the shampoo solution twice a day.
(§7) The effect of carbonic acid or pure water on the dermatophysiological parameters of irritated skin was measured using noninvasive dermatophysiological investigation methods.
(§8) The transepidermal water loss (TEWL) as a measure of the permeability barrier function was measured using the evaporimetry method. An EP1 evaporimeter (Servomed & Co., Hasselby, Stockholm, Sweden) was used. The relative skin hydration (RSH) was measured using the capacitance measurement method. A CM 820 PC corneometer (Courage & Khazaka Electronic GmbH, Cologne, Germany) was used. The measurements have been reported as mean of 2 recordings (evaporimetry) or 3 recordings (corneometry).
(§9) All the tests took place in the partially air-conditioned dermatophysiology laboratory at Osnabrück University.

Another assay concerns irritated skin. The settings on record: 2 weeks, 1 min rinse once a day, washing with shampoo solution twice a day; backs of hands. The method, then:
as §1, §2, §3, §4, §5, §6, §7, §8, §9

Assay [2] has as its system epidermal ceramide synthesis. The settings on record: SLS-irritated forearm; for values for the ceramide fraction (peak areas) versus test area treated with pure water: 1 min rinse daily, WILCOXON paired differences test.
Method: On the first investigation date, test plasters with 60 μl of 1% strength sodium lauryl sulfate (conventional synthetic surfactant frequently used in dermatological irritability research) were stuck onto in each case 3 test sites on the right and left forearm, and the epidermal lipids (baseline values before irritation) were obtained in vivo on the 4th test site on the right and left forearm. After 24 h, the test plasters were removed and all the previously irritated test sites were again irritated with sodium lauryl sulfate with occlusion for 24 h.
The intention of the cumulative irritation with sodium lauryl sulfate for 2×24 h on two consecutive days was initially to induce disturbance of the epidermal barrier, including damage to the epidermal lipid lamellae.
On the first investigation day after the irritation (Monday), the rinsing was preceded by in vivo delipidation in each case of one irritated test site on the forearm to be treated with carbonic acid and that to be treated with pure water.
Pure water was used on the comparison side for reasons of standardization. […] Use of pure water on the comparison side thus makes it possible to state that the effects which are found are attributable exclusively to the carbonic acid.
The eluate of solvent and epidermal lipids obtained in vivo was initially evaporated under nitrogen, and the epidermal lipids were then frozen. In this way, the samples for chromatography were initially collected from all the subjects during the investigations.
For the investigations by thin-layer chromatography, the 8 samples from each subject were thawed and, using different concentrations of the standard mixture, developed and detected on a thin-layer plate.
Determination of the lipid pattern before irritation, immediately after irritation and after use for one week and two weeks of carbonic acid or pure water makes it possible to make detailed statements about the regeneration of the epidermal barrier and any effects of the use of carbonic acid on individual lipid fractions of the epidermal barrier lipids. […]

As to `O=C(O)O` [carbonic acid], the “increase in TEWL (comparison of medians) versus pure water” value in assay [1] (2 weeks, 1 min rinse once a day, washing with shampoo solution twice a day, backs of hands) is given as “smaller increase in the TEWL”. Further, in assay [1] (30 min after use, all days with the exception of the first day, P<0.05), the “TEWL 30 min after use versus test regions treated with pure water” value is “significantly lower”. Further, in assay [1] (on days 3, 6, 7 and 8, values before daily use, WILCOXON paired differences test, P<0.05), the “TEWL values versus test area treated with pure water” value was “significantly lower”. Also, the “baseline values of the RSH and RSH 30 min after use versus pure water” value in the assay with irritated skin is given as “higher (in some cases significantly higher)”. In addition, the “values for the ceramide fraction (peak areas) after the treatments versus baseline values” in assay [2] (after treatment for one and two weeks) was “significantly higher than the baseline values”. For the same compound, the “values for the ceramide fraction (peak areas) versus test area treated with pure water” value is reported as “higher, nearly significantly so (p<0.05)” in assay [2] (after treatment for one week) and “significantly so (p<0.01)” in assay [2] (after treatment for two weeks).
